Test system: adult T. muris
Assay: Ex vivo adult T. muris automated motility assay (primary/secondary screen at 100 μM and dose-response)
Parameters: species or system Trichuris muris
Settings: for PRIMARY_SCREEN_MINUS_LOG_FOLD_CHANGE_MOVEMENT: primary screen; for PRIMARY_SCREEN_MINUS_LOG_FOLD_CHANGE_MOVEMENT / SECONDARY_SCREEN_MINUS_LOG_FOLD_CHANGE_MOVEMENT: adult T. muris motility; for SECONDARY_SCREEN_MINUS_LOG_FOLD_CHANGE_MOVEMENT: secondary screen
Method: Severe combined immune deficiency (SCID) mice were bred in the Biological Services Facility at the University of Manchester. Both male and female SCID mice were infected with a high dose of 200 infective embryonated T. muris eggs via oral gavage. At day 35 post-infection, groups of 5 mice were killed and their […] colons removed. Guts were opened longitudinally, washed with pre-warmed Roswell Park Memorial Institute (RPMI) 1640 media supplemented with penicillin (500U/ml) and streptomycin (500μg/ml) and adult T. muris worms gently removed using fine forceps. Worms removed from SCID mice were maintained in RPMI-1640 media supplemented with penicillin (500U/ml) and streptomycin (500μg/ml) at approximately 37°C and studied on the same day. Using fine forceps, individual live worms were placed into 96 well plates containing 75μl of RPMI-1640 medium supplemented with penicillin (500U/ml) and streptomycin (500μg/ml) plus 1% final concentration of DMSO or compound dissolved in DMSO. In the primary screen the test compound concentration was 100μM. Plates were then incubated at 37°C, 5% CO2, and motility was analysed after 24 hours. Worm movement was quantified using an automated motility assay. This system gives an estimate of worm movement in each well by thresholding and quantifying pixel intensity variance over time. An earlier version of this system has been previously described. One adult T. muris worm was used per well, with one well per compound in each replicate of the primary screen. The primary screen was repeated each week for a period of four weeks giving four independent biological replicates from separate parasite batches for each compound. Dose-response curves were calculated with the four factor log-logistic model using the R package drc. The primary screen was carried out at 100μM final concentration. Assay plates were assigned unique IDs and statistical analysis was performed without knowledge of compound identities using R scripts. Once hit wells were identified, well/plate positions were mapped to compound identities using DataWarrior [28]. […] Compounds identified as having encouraging activity from the DMSO solution samples were then resynthesized for confirmatory testing.

[1] = combined primary and secondary screen minus log fold change in movement, adult T. muris, 100 μM

| SMILES | COMBINED_SCREEN_ACTIVITY [1] | PRIMARY_SCREEN_MINUS_LOG_FOLD_CHANGE_MOVEMENT (100 μM) | COMBINED_SCREEN_ACTIVITY (adult T. muris motility screen at 100 μM, combines primary and secondary screen minus log fold change in movement (mean where both are given)) | SECONDARY_SCREEN_MINUS_LOG_FOLD_CHANGE_MOVEMENT (100 μM) |
| --- | --- | --- | --- | --- |
| COc1cccc(CN2C(=O)COCc3ccc(-c4ccccc4)cc32)c1 [Compound 101] | -0.6789 | -0.6789 |  |  |
| N#Cc1cccc(-c2ccc3c(c2)N(CC2CC2)C(=O)COC3)c1 [Compound 40] | -0.6738 | -0.6738 |  |  |
| COc1ccccc1-c1ccc2c(c1)COCC(=O)N2Cc1ccc(C(=O)N(C)C)cc1 [Compound 188] |  | 1.744 | 1.744 |  |
| O=C(O)c1cccc(-c2ccc3c(c2)N(Cc2cc(F)cc(F)c2)C(=O)COC3)c1 [Compound 178] | -2.449 | -2.449 |  |  |
| CC(=O)Nc1cccc(-c2ccc3c(c2)N(Cc2ccccc2)C(=O)COC3)c1 [Compound 137] | 5.935 | 5.935 |  |  |
| Cc1ccccc1CN1C(=O)COCc2ccc(Br)cc21 [Compound 81] | 11.5466 | 10.4743 |  | 12.6188 |
| COc1ccc(F)cc1-c1ccc2c(c1)N(Cc1ccccc1)C(=O)COC2 [Compound 129] | 3.716 | 3.716 |  |  |
| COc1ccccc1-c1ccc2c(c1)N(Cc1ccccc1Cl)C(=O)COC2 [Compound 151] | -1.249 | -1.249 |  |  |
| O=C1COCc2ccc(-c3ccc(F)c(Cl)c3)cc2N1CCN1CCOCC1 [Compound 175] | 0.9531 | 0.9531 |  |  |
| O=C1COCc2cc(-c3ccncc3)ccc2N1CCc1ccccc1 [Compound 75] | 2.679 | 2.679 |  |  |
| O=C1COCc2cc(-c3cccnc3)ccc2N1Cc1ccc2c(c1)OCO2 [Compound 125] | -0.9605 | -0.9605 |  |  |
| COc1cccc(CN2C(=O)COCc3cc(-c4cccc(F)c4)ccc32)c1 [Compound 130] | 0.2069 | 0.2069 |  |  |
| CC(C)N1C(=O)COCc2ccc(-c3cc(F)cc(F)c3)cc21 [Compound 39] | 3.736 | 3.736 |  |  |
| COc1cccc(CN2C(=O)COCc3cc(Br)ccc32)c1 [Compound 103] | 7.462 | 7.462 |  |  |
| Cc1ccc(-c2cccc3c2COCC(=O)N3C)cc1C [Compound 11] | -0.1315 | -0.1315 |  |  |
| O=C1COCc2ccc(-c3cccnc3)cc2N1Cc1ccc(C(F)(F)F)cc1 [Compound 159] | 11.6591 | 10.6993 |  | 12.6188 |
| COc1ccc(-c2ccc3c(c2)N(CC2CC2)C(=O)COC3)cc1 [Compound 43] | 3.877 | 3.877 |  |  |
| O=C1COCc2ccccc2N1Cc1ccccc1Cl [Compound 21] | -1.647 | -1.647 |  |  |
| O=C1COCc2cc(-c3ccncc3)ccc2N1Cc1ccc2c(c1)OCO2 [Compound 124] | 0.4678 | 0.4678 |  |  |
| O=C1COCc2ccc(Br)cc2N1CCc1ccccc1 [Compound 80] | 10.5493 | 10.5493 |  |  |
| O=C1COCc2ccc(-c3ccncc3)cc2N1Cc1ccccc1 [Compound 49] | -0.743 | -0.743 |  |  |
| COc1ccc(-c2ccc3c(c2)N(CCN2CCOCC2)C(=O)COC3)c(C)c1 [Compound 157] | -1.37 | -1.37 |  |  |
| COc1cccc(CN2C(=O)COCc3cc(-c4cnn(C)c4)ccc32)c1 [Compound 105] | -0.2739 | -0.55 |  | 0.002295 |
| CN1C(=O)COCc2c(-c3ccc(F)c(Cl)c3)cccc21 [Compound 33] | 1.432 | 1.432 |  |  |
| Cc1ccccc1CN1C(=O)COCc2ccc(-c3cccc(CO)c3)cc21 [Compound 122] | -0.2289 | -1.039 |  | 0.5816 |

Source: PMC5321434, “Dihydrobenz[e][1,4]oxazepin-2(3H)-ones, a new anthelmintic chemotype immobilising whipworm and reducing infectivity in vivo” (PLoS Neglected Tropical Diseases, 2017)
